PubChem BioAssay AID192 (DTP/NCI, 2004)
Toxic doses and inconclusive results are not listed.

Test system: BDF1 mice, B16 melanoma ip, median survival T/C
Assay: NCI In Vivo Anticancer Drug Screen. Data for tumor model B16 Melanoma (intraperitoneal) in B6D2F1 (BDF1) mice
Conditions: endpoint: median survival time, higher = longer survival
Summary of the method: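 Compounds were tested in mice carrying transplantable tumors. Survival or tumor size was recorded, and each value is the treated-group measurement (T) divided by that of the vehicle-treated control group (C).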

[1] = dose: 100.0 mg/kg/injection, schedule: Q01DX009 (ip), vehicle: saline with Tween-80
[2] = dose: 200.0 mg/kg/injection, schedule: Q01DX009 (ip), vehicle: saline with Tween-80
[3] = dose: 25.0 mg/kg/injection, schedule: Q01DX009 (ip), vehicle: saline
[4] = dose: 50.0 mg/kg/injection, schedule: Q01DX009 (ip), vehicle: saline
[5] = dose: 100.0 mg/kg/injection, schedule: Q01DX009 (ip), vehicle: saline
[6] = dose: 200.0 mg/kg/injection, schedule: Q01DX009 (ip), vehicle: saline
[7] = dose: 50.0 mg/kg/injection, schedule: Q01DX009 (ip), vehicle: saline with Tween-80
[8] = dose: 50.0 mg/kg/injection, schedule: Q01DX009 (ip), vehicle: Klucel (hydroxypropylcellulose) (HPC)
[9] = dose: 100.0 mg/kg/injection, schedule: Q01DX009 (ip), vehicle: Klucel (hydroxypropylcellulose) (HPC)
[10] = dose: 12.5 mg/kg/injection, schedule: Q01DX009 (ip), vehicle: saline with Tween-80
[11] = dose: 25.0 mg/kg/injection, schedule: Q01DX009 (ip), vehicle: saline with Tween-80
[12] = dose: 12.5 mg/kg/injection, schedule: Q01DX009 (ip), vehicle: saline

O=C(O)C1CCCCC1C(=O)Nc1ccccc1C(F)(F)F (stereo not given)
T/C [1]: 90 % of control
T/C [2]: 90 % of control
T/C (dose: 400.0 mg/kg/injection, schedule: Q01DX009 (ip), vehicle: saline with Tween-80): 90 % of control

Nc1ncn(C2CC(O)C(CO)O2)c(=O)n1 (stereo not given)
T/C (dose: 0.01 mg/kg/injection, schedule: Q01DX009 (ip), vehicle: Klucel (hydroxypropylcellulose) (HPC)): 98 % of control
T/C (dose: 0.03 mg/kg/injection, schedule: Q01DX009 (ip), vehicle: Klucel (hydroxypropylcellulose) (HPC)): 109 % of control
T/C (dose: 0.05 mg/kg/injection, schedule: Q01DX009 (ip), vehicle: Klucel (hydroxypropylcellulose) (HPC)): 99 % of control
T/C (dose: 0.06 mg/kg/injection, schedule: Q01DX009 (ip), vehicle: Klucel (hydroxypropylcellulose) (HPC)): 98 % of control
T/C (dose: 0.1 mg/kg/injection, schedule: Q01DX009 (ip), vehicle: Klucel (hydroxypropylcellulose) (HPC)): 100 % of control
T/C (dose: 0.12 mg/kg/injection, schedule: Q01DX009 (ip), vehicle: Klucel (hydroxypropylcellulose) (HPC)): 105 % of control
T/C (dose: 0.2 mg/kg/injection, schedule: Q01DX009 (ip), vehicle: Klucel (hydroxypropylcellulose) (HPC)): 100 % of control
T/C (dose: 0.25 mg/kg/injection, schedule: Q01DX009 (ip), vehicle: Klucel (hydroxypropylcellulose) (HPC)): 102 % of control
T/C (dose: 0.4 mg/kg/injection, schedule: Q01DX009 (ip), vehicle: Klucel (hydroxypropylcellulose) (HPC)): 105 % of control
T/C (dose: 0.5 mg/kg/injection, schedule: Q01DX009 (ip), vehicle: Klucel (hydroxypropylcellulose) (HPC)): 104 % of control
T/C (dose: 0.8 mg/kg/injection, schedule: Q01DX009 (ip), vehicle: Klucel (hydroxypropylcellulose) (HPC)): 122 % of control

C=CCNC(=O)NCC=C
T/C [3]: 114 % of control
T/C [4]: 109 % of control
T/C [5]: 95 % of control
T/C [6]: 100 % of control

Cc1cc(Cl)ccc1OCC(=O)Nc1nc(N)nc(N)n1
T/C (dose: 12.5 mg/kg/injection, schedule: Q04DX009 (ip), vehicle: Klucel (hydroxypropylcellulose) (HPC)): 88 % of control
T/C (dose: 25.0 mg/kg/injection, schedule: Q04DX009 (ip), vehicle: Klucel (hydroxypropylcellulose) (HPC)): 92 % of control
T/C (dose: 50.0 mg/kg/injection, schedule: Q04DX009 (ip), vehicle: Klucel (hydroxypropylcellulose) (HPC)): 87 % of control

CCCN(C)/N=N/c1nc[nH]c1C(N)=O
T/C [7]: 112 % of control

C[N+]1(C)C2CC(=O)CC1C1CC12 (stereo not given) (tested in a mixture with another compound)
T/C [3]: 102 % of control
T/C [4]: 89 % of control
T/C [5]: 99 % of control
T/C [6]: 100 % of control

CCOC(=O)c1c(C)[nH]c2c(-c3ccccc3)c3cc(Cl)ccc3nc12
T/C [8]: 100 % of control
T/C [9]: 104 % of control
T/C (dose: 200.0 mg/kg/injection, schedule: Q01DX009 (ip), vehicle: Klucel (hydroxypropylcellulose) (HPC)): 94 % of control
T/C (dose: 400.0 mg/kg/injection, schedule: Q01DX009 (ip), vehicle: Klucel (hydroxypropylcellulose) (HPC)): 94 % of control

CCOC(=O)c1ccc(NC(=O)Nc2nncs2)cc1
T/C (dose: 6.25 mg/kg/injection, schedule: Q01DX009 (ip), vehicle: distilled water + Tween-80): 93 % of control
T/C (dose: 12.5 mg/kg/injection, schedule: Q01DX009 (ip), vehicle: distilled water + Tween-80): 112 % of control
T/C (dose: 25.0 mg/kg/injection, schedule: Q01DX009 (ip), vehicle: distilled water + Tween-80): 95 % of control
T/C (dose: 50.0 mg/kg/injection, schedule: Q01DX009 (ip), vehicle: distilled water + Tween-80): 98 % of control

Cc1cccc(-c2nc3cc(Cl)ccc3c(=O)o2)c1
T/C (dose: 25.0 mg/kg/injection, schedule: Q01DX009 (ip), vehicle: Klucel (hydroxypropylcellulose) (HPC)): 100 % of control
T/C (dose: 25.0 mg/kg/injection, schedule: Q04DX003 (ip), vehicle: Klucel (hydroxypropylcellulose) (HPC)): 103 % of control
T/C [8]: 107 % of control
T/C (dose: 50.0 mg/kg/injection, schedule: Q04DX003 (ip), vehicle: Klucel (hydroxypropylcellulose) (HPC)): 103 % of control
T/C [9]: 100 % of control
T/C (dose: 100.0 mg/kg/injection, schedule: Q04DX003 (ip), vehicle: Klucel (hydroxypropylcellulose) (HPC)): 106 % of control

CC(=O)NC(Cc1cc(I)c(OC(C)=O)c(I)c1)C(=O)O (stereo not given)
T/C [7]: 100 % of control
T/C [1]: 97 % of control
T/C [2]: 90 % of control

Nc1cccc(NC=O)c1
T/C [10]: 102 % of control
T/C [11]: 97 % of control
T/C [7]: 97 % of control

CCCC1(CCC)CN(C)C1=O
T/C [12]: 91 % of control
T/C [3]: 89 % of control
T/C [4]: 100 % of control
T/C [5]: 106 % of control
T/C [6]: 93 % of control

O=S1(=O)N2CN3CN(C2)CN1C3
T/C [8]: 103 % of control
T/C [9]: 86 % of control

N#CSc1ccc(S(N)(=O)=O)cc1
T/C (dose: 6.25 mg/kg/injection, schedule: Q01DX009 (ip), vehicle: Klucel (hydroxypropylcellulose) (HPC)): 100 % of control
T/C (dose: 12.5 mg/kg/injection, schedule: Q01DX009 (ip), vehicle: Klucel (hydroxypropylcellulose) (HPC)): 103 % of control

Nc1cccc(=O)[nH]1
T/C [12]: 90 % of control
T/C [3]: 98 % of control
T/C [4]: 98 % of control
T/C [5]: 98 % of control
T/C [6]: 90 % of control
T/C (dose: 400.0 mg/kg/injection, schedule: Q01DX009 (ip), vehicle: saline): 92 % of control

ClC1=C(Cl)C2(Cl)C(COc3ccc(Cl)cc3)CC1(Cl)C2(Cl)Cl (stereo not given)
T/C [10]: 104 % of control
T/C [11]: 88 % of control
T/C [7]: 95 % of control

Cc1cccc(N2CCN(CCC#N)CC2)c1
T/C [11]: 102 % of control
T/C [7]: 108 % of control

CC[C@@]1(O)C(=O)OCc2c1cc1n(c2=O)Cc2cc3c(OC)cccc3nc2-1
T/C (dose: 0.39 mg/kg/injection, schedule: Q01DX009 (ip), vehicle: other): 150 % of control
T/C (dose: 0.79 mg/kg/injection, schedule: Q01DX009 (ip), vehicle: other): 161 % of control
T/C (dose: 2.0 mg/kg/injection, schedule: Q01DX009 (ip), vehicle: Klucel (hydroxypropylcellulose) (HPC)): 175 % of control
T/C (dose: 4.0 mg/kg/injection, schedule: Q01DX009 (ip), vehicle: carboxymethylcellulose (CMC)): 172 % of control

CC#CS(=O)(=O)C(C)(C)C
T/C (dose: 50.0 mg/kg/injection, schedule: Q04DX003 (ip), vehicle: saline): 104 % of control
T/C (dose: 100.0 mg/kg/injection, schedule: Q04DX003 (ip), vehicle: saline): 106 % of control
T/C (dose: 200.0 mg/kg/injection, schedule: Q04DX003 (ip), vehicle: saline): 105 % of control

CCCC1(CCC)c2ccccc2C(CCl)(OCC)c2ccccc21
T/C (dose: 12.5 mg/kg/injection, schedule: Q01DX009 (ip), vehicle: other): 92 % of control
T/C (dose: 25.0 mg/kg/injection, schedule: Q01DX009 (ip), vehicle: other): 102 % of control
T/C (dose: 50.0 mg/kg/injection, schedule: Q01DX009 (ip), vehicle: other): 100 % of control
T/C (dose: 75.0 mg/kg/injection, schedule: Q01DX009 (ip), vehicle: other): 86 % of control
T/C (dose: 300.0 mg/kg/injection, schedule: Q01DX009 (ip), vehicle: other): 86 % of control

C[C@@H]1C[C@@]2(O[C@@H]2C)C(=O)O[C@@H]2CCN3CC=C(COC(=O)[C@]1(C)O)[C@H]23
T/C (dose: 10.0 mg/kg/injection, schedule: Q01DX009 (ip), vehicle: saline): 102 % of control
T/C (dose: 20.0 mg/kg/injection, schedule: Q01DX009 (ip), vehicle: saline): 102 % of control
T/C (dose: 40.0 mg/kg/injection, schedule: Q01DX009 (ip), vehicle: saline): 104 % of control

CCC[CH2][Sn]1([CH2]CCC)[N](S(=O)(=O)c2ccc(C)cc2)c2ccccc2[N]1S(=O)(=O)c1ccc(C)cc1
T/C (dose: 1.5 mg/kg/injection, schedule: Q01DX009 (ip), vehicle: Klucel (hydroxypropylcellulose) (HPC)): 87 % of control
T/C (dose: 3.0 mg/kg/injection, schedule: Q01DX009 (ip), vehicle: Klucel (hydroxypropylcellulose) (HPC)): 102 % of control

CC(C)(N)Cc1ccc(Cl)cc1
T/C (dose: 6.25 mg/kg/injection, schedule: Q01DX009 (ip), vehicle: saline): 110 % of control
T/C [12]: 90 % of control
T/C [3]: 97 % of control
T/C [4]: 100 % of control
T/C [5]: 100 % of control

COC1C=COC2(C)Oc3c(C)c(O)c4c(c3C2=O)/C(=N/C2CCC(O)OC2C)C=C(NC(=O)/C(C)=C\C(=O)C2CC2C(O)C(C)C(O)C(C)C(OC(C)=O)C1C)C4=O (stereo not given)
T/C (dose: 4.6 mg/kg/injection, schedule: Q01DX009 (ip), vehicle: saline with Tween-80): 98 % of control
T/C (dose: 18.5 mg/kg/injection, schedule: Q01DX009 (ip), vehicle: saline with Tween-80): 97 % of control
